From patent publication US9873883B2, “Glyphosate resistant plants and associated methods” (Dow AgroSciences LLC, priority 2012, dated 2018)

Target: T1, Glycine max (soybean) EPSP synthase DGT-1 variant DGT-1 v6 (G→A) (Glycine max, UniProt I1J7U9, G182A)
T1 sequence (I1J7U9 with tags, fused parts or gaps G182A): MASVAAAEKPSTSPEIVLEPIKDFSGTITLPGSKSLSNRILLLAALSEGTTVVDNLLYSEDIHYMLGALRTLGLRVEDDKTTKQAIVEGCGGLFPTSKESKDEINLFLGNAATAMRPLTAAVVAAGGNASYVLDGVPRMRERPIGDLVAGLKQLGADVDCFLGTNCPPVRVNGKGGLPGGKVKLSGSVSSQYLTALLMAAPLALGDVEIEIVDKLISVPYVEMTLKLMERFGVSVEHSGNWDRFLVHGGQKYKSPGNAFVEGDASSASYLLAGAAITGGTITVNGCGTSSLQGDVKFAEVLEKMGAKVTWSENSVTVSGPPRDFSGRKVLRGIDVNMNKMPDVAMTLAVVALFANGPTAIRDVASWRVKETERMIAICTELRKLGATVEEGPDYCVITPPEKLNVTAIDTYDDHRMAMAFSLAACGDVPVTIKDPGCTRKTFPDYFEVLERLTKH
Test: In vitro kinetic assay (inorganic phosphate production, malachite green)
Format: biochemical
Settings: for IC50: IC50 (glyphosate)

| SMILES | increase of Km for PEP (G to A mutation vs un-mutated) [fold] | IC50 (at 60 μM PEP) [mM] | IC50 (at 1 mM PEP) [mM] |
| --- | --- | --- | --- |
| C=C(OP(=O)(O)O)C(=O)O [PEP, phosphoenolpyruvate] | ~8 |  |  |
| O=C(O)CNCP(=O)(O)O [glyphosate, N-(phosphonomethyl)glycine] |  | 17.3 | 21.1 |
